Measured values from patent US20060173048A1, “Imidazole derivatives” (priority 2005, published 2006).

Assays:
rat mGlu2 receptor = biological target: T1, rat mGlu2 receptor (Rattus norvegicus, UniProt P31421); test: [3H]-LY354740 binding on mGlu2 transfected CHO cell membranes; conditions: displacement of 10 nM [3H]-LY354740, membranes of CHO cells transfected with rat mGlu2, room temperature, 1 hour
T1 construct: expressed in transfected cells; host or cells: CHO cells, stably transfected (G-418 selection); membranes were prepared from them
T1 sequence (P31421 19-872): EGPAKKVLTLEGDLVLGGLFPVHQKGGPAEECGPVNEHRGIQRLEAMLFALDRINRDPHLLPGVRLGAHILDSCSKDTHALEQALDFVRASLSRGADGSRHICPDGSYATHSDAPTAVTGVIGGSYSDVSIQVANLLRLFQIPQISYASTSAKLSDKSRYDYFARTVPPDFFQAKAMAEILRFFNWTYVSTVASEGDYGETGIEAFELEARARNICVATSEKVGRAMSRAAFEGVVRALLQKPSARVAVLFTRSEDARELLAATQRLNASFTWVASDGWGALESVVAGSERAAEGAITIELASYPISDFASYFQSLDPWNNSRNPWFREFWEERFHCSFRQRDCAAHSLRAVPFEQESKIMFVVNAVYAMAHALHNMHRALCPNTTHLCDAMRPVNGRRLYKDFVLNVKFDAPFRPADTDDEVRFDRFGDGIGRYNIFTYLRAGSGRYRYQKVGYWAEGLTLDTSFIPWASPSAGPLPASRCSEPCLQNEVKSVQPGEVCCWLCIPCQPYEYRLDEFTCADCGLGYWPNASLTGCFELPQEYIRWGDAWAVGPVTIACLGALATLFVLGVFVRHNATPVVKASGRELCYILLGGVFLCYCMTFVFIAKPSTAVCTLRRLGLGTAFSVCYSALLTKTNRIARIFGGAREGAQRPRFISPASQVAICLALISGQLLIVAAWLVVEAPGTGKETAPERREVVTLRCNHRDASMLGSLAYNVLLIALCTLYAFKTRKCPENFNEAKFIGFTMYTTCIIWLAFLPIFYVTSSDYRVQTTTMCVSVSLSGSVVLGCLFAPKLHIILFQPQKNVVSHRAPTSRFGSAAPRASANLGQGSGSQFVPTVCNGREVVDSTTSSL
Description: [^3H]-LY354740 Binding on mGlu2 Transfected CHO Cell Membranes. Transfection and Cell Culture
cDNA encoding the rat mGlu2 receptor protein in pBluescript II was subcloned into the eukaryotic expression vector pcDNA I-amp from Invitrogen Ltd (Paisley, UK). This vector construct (pcD1mGR^2) was co-transfected with a psvNeo plasmid encoding the gene for neomycin resistance, into CHO cells by a modified calcium phosphate method described by Chen & Okayama (1988). The cells were maintained in Dulbecco's Modified Eagle medium with reduced L-glutamine (2 mM final concentration) and 10% dialysed foetal calf serum from Gibco-Invitrogen (Carlsbad, Calif., USA). Selection was made in the presence of G-418 (1000 ug/ml final) and […]. Clones were identified by reverse transcription of 5 μg total RNA, followed by PCR using mGlu2 receptor specific primers 5′-[…]-3′ and 540 -[…]-3′ in 60 mM Tris HCl (pH 10), 15 mM (NH4)2SO4, 2 mM MgCl2, 25 units/ml Taq Polymerase with 30 cycles annealing at 60° C. for 1 min., extention at 72° C. for 30 s, and 1 min. 95° C. denaturation.
Cells, cultured as above, were harvested and washed three times with cold PBS and frozen at −80° C. The pellet was resuspended in cold 20 mM HEPES-NaOH buffer containing 10 mM EDTA (pH 7.4), and homogenised with a polytron (Kinematica, AG, Littau, Switzerland) for 10 s at 10 000 rpm. After centrifugation for 30 min. at 4° C., the pellet was washed once with the same buffer, and once with cold 20 mM HEPES-NaOH buffer containing 0.1 mM EDTA, (pH 7.4). Protein content was measured using the micro BCA method from Pierce-Perbio (Rockford, Ill., USA) using bovine serum albumin as standard.
After thawing, the membranes were resuspended in cold 50 mM Tris-HCl buffer containing 2 mM MgCl2 (pH 7) (binding buffer). The final concentration of the membranes in the assays was 25 μg protein/ml. Inhibition experiments were performed with membranes incubated with 10 nM [^3H]-LY354740 at room temperature, for 1 hour, in presence of various concentrations of the compound to be tested. Following the incubations, membranes were filtered onto Whatmann GF/B glass fiber filters and washed 5 times with cold binding buffer. Non specific binding was measured in the presence of 10 μM DCG IV. After transfer of the filters into plastic vials containing 10 ml of Ultima-gold scintillation fluid from Perkin-Elmer (Boston, Mass., USA), the radioactivity was measured by liquid scintillation in a Tri-Carb 2500 TR counter (Packard, Zürich, Switzerland).
The inhibition curves were fitted with a four parameter logistic equation giving IC50 values, and Hill coefficients.

Row | SMILES | Ki (rat mGlu2 receptor) [nM] | melting point [°C]
1 | CCCC(CCC)c1nc(-c2ccncc2)c(-c2ccc(Cl)cc2)n1CC [Example 37, 4-[5-(4-Chloro-phenyl)-1-ethyl-2-(1-propyl-butyl)-1H-imidazol-4-yl]-pyridine] | 49 | 152 to 155
2 | CCn1c(C(O)(C2CCCCC2)C2CCCCC2)nc(-c2ccncc2)c1-c1ccc(Cl)cc1 [Example 47, [5-(4-Chloro-phenyl)-1-ethyl-4-pyridin-4-yl-1H-imidazol-2-yl]-dicyclohexyl-methanol] | 18 | 221 to 224
3 | Cc1cc(C)c(-c2nc(-c3ccncc3)c(-c3ccc(Cl)cc3)n2CCO)c(C)c1 [Example 26, 2-[5-(4-Chloro-phenyl)-4-pyridin-4-yl-2-(2,4,6-trimethyl-phenyl)-imidazol-1-yl]-ethanol] | 63 | 
4 | CCn1c(C(O)(C2CC2)C2CC2)nc(-c2ccncc2)c1-c1ccc(Cl)cc1 [Example 43, [5-(4-Chloro-phenyl)-1-ethyl-4-pyridin-4-yl-1H-imidazol-2-yl]-dicyclopropyl-methanol] | 111 | 185 to 188
5 | Clc1ccc(-c2c(-c3ccncc3)nc(-c3c(Cl)cccc3Cl)n2C2CC2)cc1 [Example 27, 4-[5-(4-Chloro-phenyl)-1-cyclopropyl-2-(2,6-dichloro-phenyl)-1H-imidazol-4-yl]-pyridine] | 21 | 210 to 211
6 | Cc1ccc(-c2c(-c3ccncc3)nc(-c3c(C)cc(C)cc3C)n2C)cc1 [Example 2, 4-[1-Methyl-5-(4-methyl-phenyl)-2-(2,4,6-trimethyl-phenyl)-1H-imidazol-4-yl]-pyridine] |  | 204 to 207
7 | C=CCC(O)(CC=C)c1nc(-c2ccncc2)c(-c2ccc(Cl)cc2)n1CC [Example 42, 4-[5-(4-Chloro-phenyl)-1-ethyl-4-pyridin-4-yl-1H-imidazol-2-yl]-hepta-1,6-dien-4-ol] |  | 159 to 160
8 | CCn1c(C(c2ccccc2)c2ccccc2)nc(-c2ccncc2)c1-c1ccc(Cl)cc1 [Example 39, 4-[2-Benzhydryl-5-(4-chloro-phenyl)-1-ethyl-1H-imidazol-4-yl]-pyridine] |  | 199 to 200
9 | CCC(CC)c1nc(-c2ccncc2)c(-c2ccc(Cl)cc2)n1C [Example 36, 4-[5-(4-Chloro-phenyl)-2-(1-ethyl-propyl)-1-methyl-1H-imidazol-4-yl]-pyridine] |  | 100 to 102
10 | CCn1c(-c2c(Cl)cccc2Cl)nc(-c2ccnc(OC)c2)c1-c1ccc(Cl)cc1 [Example 55, 4-[5-(4-Chloro-phenyl)-2-(2,6-dichloro-phenyl)-1-ethyl-1H-imidazol-4-yl]-2-methoxy-pyridine] |  | 138 to 140
11 | CCn1c(-c2c(C)cc(C)cc2C)nc(-c2ccncc2)c1-c1ccc(C(C)(C)C)cc1 [Example 7, 4-[5-(4-tert-Butyl-phenyl)-1-ethyl-2-(2,4,6-trimethyl-phenyl)-1H-imidazol-4-yl]-pyridine] |  | 202 to 205
12 | CCn1c(C(O)(c2cccc(F)c2)c2cccc(F)c2)nc(-c2ccncc2)c1-c1ccc(Cl)cc1 [Example 46, [5-(4-Chloro-phenyl)-1-ethyl-4-pyridin-4-yl-1H-imidazol-2-yl]-bis-(3-fluoro-phenyl)-methanol] |  | 225 to 227
13 | CCn1c(-c2c(Cl)cccc2Cl)nc(-c2ccnc(Cl)c2)c1-c1ccc(Cl)cc1 [Example 54, 2-Chloro-4-[5-(4-chloro-phenyl)-2-(2,6-dichloro-phenyl)-1-ethyl-1H-imidazol-4-yl]-pyridine] |  | 187 to 189
14 | CCn1c(C(O)(c2cccc(C(F)(F)F)c2)c2cccc(C(F)(F)F)c2)nc(-c2ccncc2)c1-c1ccc(Cl)cc1 [Example 45, [5-(4-Chloro-phenyl)-1-ethyl-4-pyridin-4-yl-1H-imidazol-2-yl]-bis-(3-trifluoromethyl-phenyl)-methanol] |  | 193 to 195
15 | CCn1c(C(O)(C(C)C)C(C)C)nc(-c2ccncc2)c1-c1ccc(Cl)cc1 [Example 41, 3-[5-(4-Chloro-phenyl)-1-ethyl-4-pyridin-4-yl-1H-imidazol-2-yl]-2,4-dimethyl-pentan-3-ol] |  | 221 to 223
16 | CCn1c(-c2c(Cl)cccc2Cl)nc(-c2ccncc2)c1-c1ccc(Cl)cc1 [Example 5, 4-[5-(4-Chloro-phenyl)-2-(2,6-dichloro-phenyl)-1-ethyl-1H-imidazol-4-yl]-pyridine] |  | 193 to 196
17 | CCn1c(-c2c(C)cc(C)cc2C)nc(-c2ccncc2)c1-c1ccc(C)cc1 [Example 4, 4-[1-Ethyl-5-(4-methyl-phenyl)-2-(2,4,6-trimethyl-phenyl)-1H-imidazol-4-yl]-pyridine] |  | 137 to 140
18 | CCn1c(-c2ccccc2C)nc(-c2ccncc2)c1-c1ccc(Cl)cc1 [Example 8, 4-[5-(4-Chloro-phenyl)-1-ethyl-2-(2-methyl-phenyl)-1H-imidazol-4-yl]-pyridine] |  | 173 to 175
19 | CCn1c(-c2c(C)cccc2Cl)nc(-c2ccncc2)c1-c1ccc(Cl)cc1 [Example 17, 4-[2-(2-Chloro-6-methyl-phenyl)-5-(4-chloro-phenyl)-1-ethyl-1H-imidazol-4-yl]-pyridine] |  | 188 to 190
20 | CCCn1c(-c2c(C)cc(C)cc2C)nc(-c2ccncc2)c1-c1ccc(C)cc1 [Example 51, 4-[1-Propyl-5-(4-methyl-phenyl)-2-(2,4,6-trimethyl-phenyl)-1H-imidazol-4-yl]-pyridine] |  | 134 to 136
21 | FC(F)(F)Cn1c(-c2c(Cl)cccc2Cl)nc(-c2ccncc2)c1-c1ccc(Cl)cc1 [Example 25, 4-[5-(4-Chloro-phenyl)-2-(2,6-dichloro-phenyl)-1-(2,2,2-trifluoro-ethyl)-1H-imidazol-4-yl]-pyridine] |  | 213 to 214
22 | CCn1c(C(O)(Cc2ccccc2)Cc2ccccc2)nc(-c2ccncc2)c1-c1ccc(Cl)cc1 [Example 48, 2-[5-(4-Chloro-phenyl)-1-ethyl-4-pyridin-4-yl-1H-imidazol-2-yl]-1,3-diphenyl-propan-2-ol] |  | 116 to 117
23 | CCn1c(-c2c(OC)cc(OC)cc2OC)nc(-c2ccncc2)c1-c1ccc(Cl)cc1 [Example 18, 4-[5-(4-Chloro-phenyl)-1-ethyl-2-(2,4,6-trimethoxy-phenyl)-1H-imidazol-4-yl]-pyridine] |  | 255 to 256
24 | CCn1c(-c2ccccc2Br)nc(-c2ccncc2)c1-c1ccc(Cl)cc1 [Example 16, 4-[2-(2-Bromo-phenyl)-5-(4-chloro-phenyl)-1-ethyl-1H-imidazol-4-yl]-pyridine] |  | 144 to 147
25 | C=CCn1c(-c2c(C)cc(C)cc2C)nc(-c2ccncc2)c1-c1ccc(Cl)cc1 [Example 21, 4-[1-Allyl-5-(4-chloro-phenyl)-2-(2,4,6-trimethyl-phenyl)-1H-imidazol-4-yl]-pyridine] |  | 151 to 154
26 | CCn1c(-c2c(C)cc(C)cc2C)nc(-c2ccncc2)c1-c1ccc(F)cc1 [Example 10, 4-[1-Ethyl-5-(4-fluoro-phenyl)-2-(2,4,6-trimethyl-phenyl)-1H-imidazol-4-yl]-pyridine] |  | 194 to 196
27 | C=CCn1c(-c2c(Cl)cccc2Cl)nc(-c2ccncc2)c1-c1ccc(Cl)cc1 [Example 22, 4-[1-Allyl-5-(4-chloro-phenyl)-2-(2,6-dichloro-phenyl)-1H-imidazol-4-yl]-pyridine] |  | 163 to 165
28 | CCn1c(-c2ccnc3ccccc23)nc(-c2ccncc2)c1-c1ccc(Cl)cc1 [Example 32, 4-[5-(4-Chloro-phenyl)-1-ethyl-4-pyridin-4-yl-1H-imidazol-2-yl]-quinoline] |  | 167 to 169
29 | Cc1ccc(-c2c(-c3ccncc3)nc(-c3c(Cl)cccc3Cl)n2C)cc1 [Example 1, 4-[2-(2,6-Dichloro-phenyl)-1-methyl-5-(4-methyl-phenyl)-1H-imidazol-4-yl]-pyridine] |  | 214 to 217
30 | CCn1c(-c2c(C)cc(C)cc2C)nc(-c2ccncc2)c1-c1ccc(Cl)cc1 [Example 12, 4-[5-(4-Chloro-phenyl)-1-ethyl-2-(2,4,6-trimethyl-phenyl)-1H-imidazol-4-yl]-pyridine] |  | 226 to 227
